Laboratory results from US9365502B2, “Neuroactive substituted cyclopenta[b]phenanthrenes as modulators for GABA type-A receptors” (priority 2013, dated 2016).
Read-outs that look alike come from different tables or passages of the source.

Assays:
[1] = biological target: picrotoxin binding site on GABAA receptors; experiment: [35S]-TBPS displacement (inhibition of [35S]-TBPS binding); details: mean ± SEM, duplicate experiments performed in triplicate
Procedure: The IC50 values for non-competitive displacers of [^35S]-TBPS from the picrotoxin binding site on GABAA receptors are reported in Table 1.
Results presented are from duplicate experiments performed in triplicate. Error limits are calculated as standard error of the mean. Methods used are known in the art (see Jiang, X., et al., Neurosteroid analogues. 9. Conformationally constrained pregnanes: structure-activity studies of 13,24-cyclo-18,21-dinorcholane analogues of the GABA modulatory and anesthetic steroids (3α,5α)- and […]. J. Med. Chem., 46: 5334-48 (2003)—the contents of which are hereby incorporated by reference in their entirety).

[2] = biological target: rat α1β2γ2L type GABAA receptors expressed in Xenopus laevis oocytes (Rattus norvegicus (Rat), UniProt P62813+P63138, INS375LLRMFSFK); experiment: Potentiation of GABA-mediated chloride currents, oocyte electrophysiology; assay type: cell-based; details: ± SEM; for Oocyte electrophysiology 0.1 μM (ratio of currents in presence/absence of compound): 0.1 μM compound; for Oocyte electrophysiology 0.1 μM (ratio of currents in presence/absence of compound) / Oocyte electrophysiology 1.0 μM (ratio of currents in presence/absence of compound) / Oocyte electrophysiology 10 μM (ratio of currents in presence/absence of compound): 2 μM GABA, N>=4; for Oocyte electrophysiology 1.0 μM (ratio of currents in presence/absence of compound): 1.0 μM compound; for Oocyte electrophysiology (gating) 10 μM (ratio of compound only current/2 μM GABA current): 10 μM compound in the absence of GABA; for Oocyte electrophysiology 10 μM (ratio of currents in presence/absence of compound): 10 μM compound
Procedure: The compounds of the present disclosure were evaluated for the ability to potentiate chloride currents mediated by 2 μM GABA at rat α1β2γ2L type GABAA receptors expressed in Xenopus laevis oocytes and the results are shown in Table 2.
The GABA concentration used for the control response was 2 μM. Each compound was evaluated on at least four different oocytes at the concentrations indicated, and the results reported are the ratio of currents measured in the presence/absence of added compound. Gating represents direct current gated by 10 μM compound in the absence of GABA, and this current is reported as the ratio of compound only current/2 μM GABA current. Error limits are calculated as standard error of the mean (N≧4). Methods used are known in the art (see Jiang, X., et al.).

[3] = test system: Tadpole; experiment: Tadpole loss of righting (LRR) and loss of swimming (LSR) reflexes; assay type: in vivo; details: ± SEM
Procedure: Table 3 discloses the anesthetic effects of the compounds of the present disclosure. In particular, the anesthetic effect of the compounds of the present disclosure on Loss of Righting Reflex (LRR) and Loss of Swimming Reflex (LSR).
Methods used are known in the art (see Jiang, X., et al.). Error limits are calculated as standard error of the mean (N=10 or more animals at each of five or more different concentrations).

[4] = loss of righting reflex, read-out: Tadpole LRR EC50
[5] = loss of swimming reflex, read-out: Tadpole LSR EC50

SMILES	melting point [°C]	IC50 [1] [nM]	Oocyte electrophysiology 0.1 μM (ratio of currents in presence/absence of compound) [2]	Oocyte electrophysiology 1.0 μM (ratio of currents in presence/absence of compound) [2]	Oocyte electrophysiology (gating) 10 μM (ratio of compound only current/2 μM GABA current) [2]	Oocyte electrophysiology 10 μM (ratio of currents in presence/absence of compound) [2]	EC50 [3, 4] [nM]	EC50 [3, 5] [nM]
C[C@]12C[C@H]3CC[C@@H]4C[C@@H](O)CC[C@H]4[C@@H]3C[C@@H]1CC[C@@H]2C#N	162 to 164	–	–	–	–	–	–	–
CC(=O)[C@H]1CC[C@H]2C[C@@H]3[C@H](CC[C@@H]4C[C@@H](O)CC[C@H]43)C[C@@]21C	131 to 133	–	–	–	–	–	–	–
C[C@@]12CC[C@H](O)C[C@H]1CC[C@@H]1C[C@]3(C)C(=O)CC[C@H]3C[C@H]12	179 to 181	–	–	–	–	–	–	–
C[C@]12CC(=O)C[C@@H]1C[C@H]1[C@@H](CC[C@H]3C[C@H](O)CC[C@@H]31)C2	165 to 166	–	–	–	–	–	–	–
C[C@@]12C[C@@H]3CC[C@@H]4C[C@H](O)CC[C@@H]4[C@H]3C[C@H]1CC[C@]21CO1	163 to 165	–	–	–	–	–	–	–
C[C@]12C[C@H]3CC[C@@H]4C[C@@H](O)CC[C@H]4[C@@H]3C[C@@H]1CC[C@@H]2[N+](=O)[O-]	157 to 159	–	–	–	–	–	–	–
C[C@]12C[C@H]3CC[C@@H]4C[C@@H](O)CC[C@H]4[C@@H]3C[C@@H]1CC/C2=C/C#N [MQ-31]	–	61 ± 4	1.49 ± 0.09	3.93 ± 0.20	0.02 ± 0.02	8.25 ± 0.71	430 ± 80	1040
C[C@]12C[C@H]3CC[C@@H]4C[C@@H](O)CC[C@H]4[C@@H]3C[C@@H]1CC/C2=C\C#N [MQ-32]	–	147 ± 9	1.64 ± 0.02	3.21 ± 0.13	0.12 ± 0.01	8.77 ± 1.65	360 ± 130	1070
C[C@]12C[C@H]3CC[C@@H]4C[C@@H](O)CC[C@H]4[C@@H]3C[C@@H]1CC[C@@H]2[N+](=O)[O-] [MQ-33]	–	62 ± 6	1.68 ± 0.10	5.30 ± 0.75	0.02 ± 0.01	9.08 ± 1.83	240 ± 10	550 ± 10
C[C@]12C[C@H]3CCC4C[C@@H](O)CC[C@H]4[C@@H]3C[C@@H]1CCC2=O (some centres unmarked) [MQ-36]	–	1730	1.11 ± 0.09	1.22 ± 0.05	−0.06 ± 0.06	3.81 ± 0.45	7900 ± 4450	> 30000
C[C@]12C[C@H]3CC[C@@H]4C[C@@H](O)CCC4C3CC1CC[C@@]21CO1 (some centres unmarked) [MQ-37]	–	46 ± 4	1.91 ± 0.17	16.12 ± 2.24	0.54 ± 0.44	27.57 ± 5.45	160	540 ± 10
C[C@]12C[C@H]3CC[C@@H]4C[C@@H](O)CC[C@H]4[C@@H]3C[C@@H]1CC[C@@H]2C#N [MQ-38]	–	52 ± 7	1.51 ± 0.19	6.92 ± 1.29	0.51 ± 0.48	12.50 ± 1.98	380 ± 60	870
CC(=O)[C@H]1CCC2CC3C(CCC4C[C@H](O)CCC43)C[C@@]21C (some centres unmarked) [MQ-39]	–	65 ± 7	1.32 ± 0.03	3.82 ± 0.36	0.03 ± 0.0	7.91 ± 0.64	340	1070
C[C@@]12CC3CC[C@H]4C[C@H](O)CCC4C3CC1CCC2=O (some centres unmarked) [MQ-47]	–	1330	1.10 ± 0.20	1.50 ± 0.28	−0.01 ± 0.03	6.42 ± 1.11	3760 ± 5220	> 10000
C[C@]12CC(=O)CC1CC1C(CCC3C[C@H](O)CCC31)C2 (some centres unmarked) [MQ-48]	–	282 ± 197	1.03 ± 0.01	1.64 ± 0.06	0.01 ± 0.0	7.10 ± 1.51	2390 ± 280	7490
C[C@@]12CC3CCC4C[C@H](O)CCC4C3CC1CC[C@H]2C#N (some centres unmarked) [MQ-49]	–	1580	0.92 ± 0.01	1.02 ± 0.01	0.02 ± 0.01	1.86 ± 0.06	2400 ± 760	5480 ± 120
CC(=O)[C@@H]1CC[C@@H]2C[C@H]3[C@@H](CC[C@H]4C[C@H](O)CC[C@@H]43)C[C@]21C [MQ-50]	–	1060	1.02 ± 0.01	1.18 ± 0.02	0.0 ± 0.0	1.98 ± 0.07	2010 ± 1300	10000
C[C@@]12C[C@@H]3CC[C@@H]4C[C@H](O)CC[C@@H]4[C@H]3C[C@H]1CCC2=O [MQ-51]	–	5860	0.97 ± 0.03	1.02 ± 0.02	0.08 ± 0.08	1.59 ± 0.11	> 10000	> 10000
C[C@@]12CC3CCC4C[C@H](O)CCC4C3CC1CC[C@]21CO1 (some centres unmarked) [MQ-54]	–	1990	1.01 ± 0.05	4.03 ± 0.31	0.05 ± 0.01	11.41 ± 1.18	3340 ± 110	5480 ± 200
C[C@@]12CC[C@H](O)C[C@@H]1CC[C@@H]1C[C@]3(C)C(=O)CCC3C[C@H]12 (some centres unmarked) [MQ-83]	–	748 ± 103	0.85 ± 0.07	1.03 ± 0.06	0.1 ± 0.2	6.35 ± 0.81	2190 ± 440	5480 ± 120
C[C@@]12CC[C@@H](O)C[C@@H]1CC[C@H]1C[C@@]3(C)[C@H](CC[C@@]34CO4)C[C@@H]12 [MQ-85]	–	29 ± 7	2.08 ± 0.23	9.59 ± 1.77	0.10 ± 0.02	17.18 ± 3.31	350 ± 20	550 ± 10
C[C@@]12CC[C@H](O)C[C@H]1CC[C@@H]1C[C@]3(C)C(C#N)=CCC3CC12 (some centres unmarked) [MQ-86]	–	43 ± 3	2.25 ± 0.11	10.95 ± 1.05	0.16 ± 0.03	19.64 ± 2.06	380 ± 50	550 ± 10
C[C@@]12CC[C@H](O)C[C@H]1CC[C@@H]1C[C@@]3(C)C(CC[C@@H]3C#N)CC12 (some centres unmarked) [MQ-87]	–	14 ± 2	1.93 ± 0.14	10.95 ± 0.55	0.04 ± 0.01	16.10 ± 0.87	100 ± 10	330
